The values that follow are results of earlier work, collected in PMC10289903 (Investigational New Drugs, 2023).

Structures are written as SMILES.

The subject of this series is platinum-resistant or platinum-refractory recurrent ovarian cancer. To be noted: placebo plus gemcitabine arm; 95% CI 1.8–3.8; cited from earlier work.

As to `Nc1ccn([C@@H]2O[C@H](CO)[C@@H](O)C2(F)F)c(=O)n1` [gemcitabine, reference compound], the PFS is 3.0 months.
